The first assay has as its target Cyclin-dependent kinase 4/Cyclin D1. The assay is described as follows: Inhibition of CDK4/Cyclin D1 (unknown origin).
Take `COc1ccc(/C=C\c2cc(OC)c(OC)c(OC)c2)cc1NC(=O)CCC(=O)N[C@@H](CCCNC(=N)N)C(=O)O`: the IC50 (as a rule, the concentration that gives 50% inhibition) was more than 10 µM.

For a further assay, the target named is Neuropilin-1 (Homo sapiens) (UniProt O14786). Kind of assay: Inhibition of [125I]-VEGF-A165 binding to NRP1 (unknown origin) transfected in HUVECs incubated for 2 hrs by plate reader analysis.
Chain of Neuropilin-1 (Homo sapiens) (O14786 whole entry, looked up): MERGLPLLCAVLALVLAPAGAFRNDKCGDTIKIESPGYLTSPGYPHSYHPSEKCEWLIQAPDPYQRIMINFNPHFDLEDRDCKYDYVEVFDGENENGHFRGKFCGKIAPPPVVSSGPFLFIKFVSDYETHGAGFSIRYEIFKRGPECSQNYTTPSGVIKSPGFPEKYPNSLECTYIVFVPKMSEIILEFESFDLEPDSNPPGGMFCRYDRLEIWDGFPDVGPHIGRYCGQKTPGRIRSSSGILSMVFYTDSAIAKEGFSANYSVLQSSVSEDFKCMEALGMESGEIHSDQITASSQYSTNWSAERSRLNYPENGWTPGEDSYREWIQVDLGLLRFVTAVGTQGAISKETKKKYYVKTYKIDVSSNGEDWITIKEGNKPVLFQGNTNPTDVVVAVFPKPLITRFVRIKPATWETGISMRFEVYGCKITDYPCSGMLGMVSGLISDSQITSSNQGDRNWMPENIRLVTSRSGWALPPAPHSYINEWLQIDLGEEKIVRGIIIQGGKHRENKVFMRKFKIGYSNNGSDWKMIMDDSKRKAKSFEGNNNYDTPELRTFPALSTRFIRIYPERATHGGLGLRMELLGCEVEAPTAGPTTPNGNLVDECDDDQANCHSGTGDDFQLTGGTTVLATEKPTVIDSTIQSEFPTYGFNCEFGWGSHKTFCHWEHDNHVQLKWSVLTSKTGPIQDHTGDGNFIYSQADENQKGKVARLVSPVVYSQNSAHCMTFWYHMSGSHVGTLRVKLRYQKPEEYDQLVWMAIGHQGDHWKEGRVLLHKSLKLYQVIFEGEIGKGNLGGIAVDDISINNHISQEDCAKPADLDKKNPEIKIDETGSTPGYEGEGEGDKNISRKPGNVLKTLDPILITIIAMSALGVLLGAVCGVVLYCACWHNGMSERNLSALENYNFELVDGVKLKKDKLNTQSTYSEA
Turning to `COc1ccc(/C=C\c2cc(OC)c(OC)c(OC)c2)cc1NC(=O)CCCCCCC(=O)N[C@@H](CCCNC(=N)N)C(=O)O`, the IC50 was found to be 15 µM. As for `COc1ccc(/C=C\c2cc(OC)c(OC)c(OC)c2)cc1NC(=O)/C=C/C(=O)N[C@@H](CCCNC(=N)N)C(=O)O`, the IC50 came out at 3.91 µM.

As for `COc1ccc(/C=C\c2cc(OC)c(OC)c(OC)c2)cc1NC(=O)CCCC(=O)N[C@@H](CCCNC(=N)N)C(=O)O`, the IC50 amounted to 6.33 µM. `NC(N)=NCCC[C@H](NC(=O)c1sccc1NS(=O)(=O)c1cccc2nsnc12)C(=O)O` [(S)-2-(3-(benzo[c][1,2,5]thiadiazole-4-sulfonamido)thiophene-2-carboxamido)-5-guanidinopentanoic acid] yielded an IC50 of 2.91 µM. On the same count and under the same terms, in the case of `COc1ccc(/C=C\c2cc(OC)c(OC)c(OC)c2)cc1NC(=O)CCCCC(=O)N[C@@H](CCCNC(=N)N)C(=O)O` it was 8.94 µM. Molecule `COc1ccc(/C=C\c2cc(OC)c(OC)c(OC)c2)cc1NC(=O)CCC(=O)N[C@@H](CCCNC(=N)N)C(=O)O` registered an IC50 of 0.85 µM.

The record behind these values is BindingDB's records for doi:10.1021/acs.jmedchem.3c01572 (China Pharmaceutical University, 2023).
